From US20190116791A1, “USE OF SAFENERS WITH PPO INHIBITOR HERBICIDES” (priority 2016, published 2019)
Several values for one entry are separate records, joined by “and”; a condition that tells them apart may be missing. Equal values may be shown once.

Experiments:
[1] = tested on: wheat specie “Yellowstone”; experiment: Percent wheat injury, visual rating 0-100%, greenhouse, post-emergence spray; settings: for Percent wheat injury 3 DAT / Percent wheat injury 7 DAT / Percent wheat injury 14 DAT / Injury: Yellowstone; for Injury / Percent injury on wheat, Yellowstone 3 DAT / Percent injury on wheat, Yellowstone 7 DAT / Percent injury on wheat, Yellowstone 14 DAT: Table 4; for Injury: time not stated; for Percent wheat injury, YELLOWSTONE (1) 3 DAT / Percent wheat injury, YELLOWSTONE (1) 7 DAT / Percent wheat injury, YELLOWSTONE (1) 14 DAT: Table 7 Test 1; for Percent wheat injury, YELLOWSTONE (1) 3 DAT / Percent wheat injury, YELLOWSTONE (1) 7 DAT / Percent wheat injury, YELLOWSTONE (1) 14 DAT / Percent wheat injury, YELLOWSTONE (2) 3 DAT / Percent wheat injury, YELLOWSTONE (2) 7 DAT / Percent wheat injury, YELLOWSTONE (2) 14 DAT: tank-mix; for Percent wheat injury, YELLOWSTONE (2) 3 DAT / Percent wheat injury, YELLOWSTONE (2) 7 DAT / Percent wheat injury, YELLOWSTONE (2) 14 DAT: Table 7 Test 2
[2] = tested on: Velvetleaf; experiment: Percent weed control, 0 to 100% rating system; type: in vivo; settings: Table 6
Experimental: (§1) Percent weed control was determined by a method similar to the 0 to 100% rating system as described above and reproduced below for easy reference. The same weed control rating system also can be found such as in “Research Methods in Weed Science,” 2nd ed., B. Truelove, Ed.; Southern Weed Science Society; Auburn University, Auburn, Ala., 1977.

[3] = tested on: Morningglory; experiment: Percent weed control, 0 to 100% rating system; type: in vivo; settings: Table 6
Experimental: as §1

[4] = tested on: wheat variety “Jagger”; experiment: Percent wheat injury, visual rating 0-100%, greenhouse, post-emergence spray; settings: for Injury / Percent injury on wheat, Jagger 3 DAT / Percent injury on wheat, Jagger 7 DAT / Percent injury on wheat, Jagger 14 DAT: Table 4; for Injury: Jagger, time not stated; for Percent wheat injury, JAGGER 3 DAT / Percent wheat injury, JAGGER 7 DAT / Percent wheat injury, JAGGER 14 DAT: Table 7 Test 1, tank-mix
[5] = Table 2, carfentrazone-ethyl 25 g ai/ha
[6] = Table 3, carfentrazone-ethyl 50 g ai/ha
[7] = carfentrazone-ethyl at 50 g, safened treatment as tank-mix or premix
[8] = fluthiacet-methyl 5.6 g ai/ha, 3 DAT
[9] = fluthiacet-methyl 11.2 g ai/ha, 3 DAT

CCOC(=O)C(Cl)Cc1cc(-n2nc(C)n(C(F)F)c2=O)c(F)cc1Cl (centres unmarked) [Carfentrazone-ethyl, carfentrazone-ethyl]
Percent wheat injury 3 DAT ([1]; Table 2, carfentrazone-ethyl 25 g ai/ha, 3 DAT): 34% and 34 (A) % | Percent wheat injury 3 DAT ([1]; Table 2, carfentrazone-ethyl 25 g ai/ha, 3 DAT, listed as carfentrazone-ethyl): 34% | Percent wheat injury 7 DAT [1, 5]: 28 (A) % | Percent wheat injury 14 DAT [1, 5]: 15 (A) % | Percent wheat injury 3 DAT ([1]; Table 3, carfentrazone-ethyl 50 g ai/ha, 3 DAT): 43% and 43 (A) % | Percent wheat injury 7 DAT [1, 6]: 36 (A) % | Percent wheat injury 14 DAT [1, 6]: 20 (A) % | Injury ([1]; carfentrazone-ethyl at 25 g): > 35% | Injury [1, 7]: > 40% | Percent injury on wheat, Yellowstone 3 DAT ([1]; carfentrazone-ethyl 25 g ai/ha, 3 DAT): 38% | Percent injury on wheat, Yellowstone 7 DAT ([1]; carfentrazone-ethyl 25 g ai/ha): 34% | Percent injury on wheat, Yellowstone 14 DAT ([1]; carfentrazone-ethyl 25 g ai/ha): 24% | Percent injury on wheat, Yellowstone 3 DAT ([1]; carfentrazone-ethyl 50 g ai/ha, 3 DAT): 44% | Percent injury on wheat, Yellowstone 7 DAT ([1]; carfentrazone-ethyl 50 g ai/ha): 39% | Percent injury on wheat, Yellowstone 14 DAT ([1]; carfentrazone-ethyl 50 g ai/ha): 28% | Percent weed control, Velvetleaf 3 DAT ([2]; carfentrazone-ethyl 25 g ai/ha): 90 (A) % | Percent weed control, Velvetleaf 7 DAT ([2]; carfentrazone-ethyl 25 g ai/ha): 100% | Percent weed control, Velvetleaf 3 DAT ([2]; carfentrazone-ethyl 50 g ai/ha): 90 (A) % | Percent weed control, Velvetleaf 7 DAT ([2]; carfentrazone-ethyl 50 g ai/ha): 100% | Percent weed control, Morningglory 3 DAT ([3]; carfentrazone-ethyl 25 g ai/ha): 90 (A) % | Percent weed control, Morningglory 7 DAT ([3]; carfentrazone-ethyl 25 g ai/ha): 100 (A) % | Percent weed control, Morningglory 3 DAT ([3]; carfentrazone-ethyl 50 g ai/ha): 90 (A) % | Percent weed control, Morningglory 7 DAT ([3]; carfentrazone-ethyl 50 g ai/ha): 100 (A) % | Injury ([4]; carfentrazone-ethyl at 25 g): > 35% | Injury [4, 7]: > 40% | Percent injury on wheat, Jagger 3 DAT ([4]; carfentrazone-ethyl 25 g ai/ha): 36% | Percent injury on wheat, Jagger 7 DAT ([4]; carfentrazone-ethyl 25 g ai/ha): 34% | Percent injury on wheat, Jagger 14 DAT ([4]; carfentrazone-ethyl 25 g ai/ha): 25% | Percent injury on wheat, Jagger 3 DAT ([4]; carfentrazone-ethyl 50 g ai/ha): 43% | Percent injury on wheat, Jagger 7 DAT ([4]; carfentrazone-ethyl 50 g ai/ha): 38% | Percent injury on wheat, Jagger 14 DAT ([4]; carfentrazone-ethyl 50 g ai/ha): 30%

COC(=O)CSc1cc(/N=c2\sc(=O)n3n2CCCC3)c(F)cc1Cl [F-M, fluthiacet-methyl]
Percent wheat injury, YELLOWSTONE (1) 3 DAT [1, 8]: 12% | Percent wheat injury, YELLOWSTONE (1) 7 DAT ([1]; fluthiacet-methyl 5.6 g ai/ha): 12% | Percent wheat injury, YELLOWSTONE (1) 14 DAT ([1]; fluthiacet-methyl 5.6 g ai/ha): 12% | Percent wheat injury, YELLOWSTONE (1) 3 DAT [1, 9]: 36% | Percent wheat injury, YELLOWSTONE (1) 7 DAT ([1]; fluthiacet-methyl 11.2 g ai/ha): 34% | Percent wheat injury, YELLOWSTONE (1) 14 DAT ([1]; fluthiacet-methyl 11.2 g ai/ha): 34% | Percent wheat injury, YELLOWSTONE (2) 3 DAT [1, 8]: 16% | Percent wheat injury, YELLOWSTONE (2) 7 DAT ([1]; fluthiacet-methyl 5.6 g ai/ha): 11% | Percent wheat injury, YELLOWSTONE (2) 14 DAT ([1]; fluthiacet-methyl 5.6 g ai/ha): 12% | Percent wheat injury, YELLOWSTONE (2) 3 DAT [1, 9]: 40% | Percent wheat injury, YELLOWSTONE (2) 7 DAT ([1]; fluthiacet-methyl 11.2 g ai/ha): 36% | Percent wheat injury, YELLOWSTONE (2) 14 DAT ([1]; fluthiacet-methyl 11.2 g ai/ha): 25% | Percent wheat injury, JAGGER 3 DAT ([4]; fluthiacet-methyl 5.6 g ai/ha): 6% | Percent wheat injury, JAGGER 7 DAT ([4]; fluthiacet-methyl 5.6 g ai/ha): 8% | Percent wheat injury, JAGGER 14 DAT ([4]; fluthiacet-methyl 5.6 g ai/ha): 10% | Percent wheat injury, JAGGER 3 DAT ([4]; fluthiacet-methyl 11.2 g ai/ha): 35% | Percent wheat injury, JAGGER 7 DAT ([4]; fluthiacet-methyl 11.2 g ai/ha): 35% | Percent wheat injury, JAGGER 14 DAT ([4]; fluthiacet-methyl 11.2 g ai/ha): 19%

O=C1OC(=O)c2cccc3cccc1c23 [naphthalic anhydride]
wheat injury in the presence of safener(s) ([1]; text on Tables 2 and 3, safener applied with carfentrazone-ethyl, regardless of rate (25 or 50 g), 3 DAT): greater than 25%
